Residues, ends and D or L forms follow the SMILES beside them. *: point of attachment. Bz = O=C(c1ccccc1)* Where only a bound is given, the exact number is not on record here.

Usually melting point stands for the temperature, or range, at which the solid turns liquid.

With `CN(Cc1csc(N)c1C(=O)c1ccc(Cl)cc1)c1ccccc1`, the melting point fell in the range of 129 to 131 °C.

`CN1CCN(c2cccc3ccc(NC(=O)Nc4ccccc4)cc23)CC1` gave a melting point of 213 to 214 °C.

Take `OC1(C2(Cl)CC2)Cc2ncnn2C(CC(Cl)(Cl)Cl)C1` (configuration not stated): the melting point was in the range of 153 to 154 °C.

`O=[N+]([O-])c1ccc(NN=C(Cl)c2ccccc2)cc1` registered a melting point of 195 to 196 °C.

The compound `O=C(O)CCCC1CCN(CCOC(c2ccc(F)cc2)c2ccc(F)cc2)CC1` registered a melting point of 145 to 147 °C.

Consider `Cn1c(CNC(=O)Nc2ccc3c(c2)CCC3NC(=O)OC(C)(C)C)c(-c2ccccc2)c2cc(Cl)ccc2c1=O` (configuration not stated), for which the melting point lay in the range of 225 to 227 °C.

`COc1ccc2c(c1)c(Cc1cc(=O)n(C)[nH]1)c(C)n2C(=O)c1ccc(Cl)cc1` returned a melting point of 146 to 147 °C.

`C=CCc1cc(N2CCN(c3ccncc3)CC2)ccc1OCCCC(=O)OCC` came in with a melting point of 53 to 55 °C.

Regarding `COc1ccc(S(=O)(=O)N2C(=O)C(c3ccccc3OC)(N3CCC[C@H]3C(=O)N3CCC3)c3cc(Cl)ccc32)c(OC)c1` (some centres not stated), the melting point lay within 161 to 166 °C.

Turning to `Cc1oc(C=Cc2cccc(C(F)(F)F)c2)nc1CO`, the melting point was in the range of 134 to 135 °C.

As for `NS(=O)(=O)c1ccc(-n2nc(CCNC(=O)Nc3cccc(C(F)(F)F)c3)cc2-c2ccccc2)cc1`, the melting point was 122 to 125 °C.

`COc1cc(OCCN2CCCC2)cc2nc(-c3cc(C)nc(C)c3)[nH]c(=O)c12` had a melting point of 227 to 229 °C.

`C=C[C@@H](C[C@H](O)[C@H](CC1CCCCC1)NC(=O)[C@H](Cc1c[nH]cn1)NC(=O)[C@@H](CC(=O)N1CCC(C(=O)OCC)CC1)Cc1ccccc1)C(C)C`: the melting point stood at 103 °C.

Take `N#Cc1cnc2sccc2c1Cl`: the melting point lay within 100 to 103 °C.

The compound `COc1cc(OC)c(OC)cc1CN1CCc2cc(OCc3ccccc3)c(OC)cc2C1` registered a melting point of 110 to 111 °C.

The compound `C[Si](Cn1nc[nH]c1=S)(c1ccccc1F)c1ccccc1F` showed a melting point of 105 °C.

`CCOC(=O)C1=C(C(F)(F)F)Nc2n[nH]cc2C1c1ccccc1F` (configuration not stated) showed a melting point of 119 to 120 °C.

Regarding `CC(n1cnc2cc(I)ccc2c1=O)C(O)(Cn1cncn1)c1ccc(F)cc1F` (configuration not stated), the melting point fell in the range of 155 to 156 °C.

`O=C(O)[C@@H]1Cc2ccccc2C[C@H]1C(=O)O` (relative stereo): the melting point was in the range of 229 to 232 °C.

With `C=C(C)C(=O)OCCc1ccc(N(C)C)cc1`, the melting point is 42 to 43 °C.

The compound `CCOC(=O)CCc1ccc2cc(O)ccc2c1` showed a melting point of 90 to 91 °C.

Regarding `CC(C)c1nn(-c2nc3ccccc3s2)c(-c2ccc(F)cc2)c1Br`, the melting point lay in the range of 146 to 147 °C.

With `Fc1ccc(SC(c2cc(F)ccc2F)c2cc(Cl)ncc2Cl)cc1` (configuration not stated), the melting point fell in the range of 95 to 97 °C.

`Cc1ccc(C)n1C1=CC2=C(CC1)CCc1[nH]c(=O)c(=O)n(OCC(=O)O)c12`: the melting point was greater than 260 °C.

In turn, `Oc1ccccc1OCCCN1CCC(=C(c2ccc(F)cc2)c2ccc(F)cc2)CC1` yielded a melting point of 125 to 127 °C.

`COc1c(O)ccc2c1OCC2=O`: the melting point was found to be 160 °C.

`CCOC(=O)CN(C(=O)CNC(=O)Nc1cccc(C)c1)c1ccccc1` yielded a melting point of 181 °C.

Compound `c1ccc(CN2CCN(c3nc4cccc5c4n3CCC5)CC2)cc1` displayed a melting point of 157 to 158 °C.

In the case of `c1ccc2c(c1)Cn1cnnc1CN2`, the melting point is 232 to 237 °C.

In the case of `CN(C)C=Nc1c(Cl)cc(N=Cc2ccc(-c3ccccc3)cc2)cc1Cl`, the melting point is 108 to 110 °C.

The compound `CC(=O)OCC(CCc1nc2nc(N)nc(SCCC(=O)c3ccccc3)c2[nH]1)COC(C)=O` registered a melting point of 130 to 131 °C.

Take `CCSC1=N[C@@H](c2ccc(OC)cc2)[C@@H](c2ccc(OC)cc2)N1`: the melting point was in the range of 92 to 93 °C.

The compound `CC(=O)Nc1ccc(-c2cc(C(=O)c3ccccc3)sc2N2CCOCC2)cc1` gave a melting point of 165 °C.

Compound `CO[C@@H]1[C@@H](OC)[C@H](C)O[C@@H](ON=Cc2ccc(-c3cn(-c4ccc(OC(F)(F)F)cc4)cn3)cc2)[C@@H]1OC` came in with a melting point of 178 °C.

Compound `O=C(C1CC1)N1CCC2(CC1)OCCO2` came in with a melting point of 72 to 74 °C.

On to `CCOc1ccc2c(c1)c(-c1ccc3c(c1)OCO3)c(C(=O)OC)c(=O)n2Cc1ccccc1OC`, for which the melting point is 157 to 158 °C.

In turn, `COC(=O)c1ccc(OCCNC(=O)C2Cc3ccccc3N2S(=O)(=O)c2ccc(-c3ccc(F)cc3Cl)cc2)nc1` (configuration not stated) returned a melting point of 78 to 85 °C.

Compound `Cc1ccc(-c2cn(C)c(-c3ccc4c(c3)C(C)(C)c3ccccc3-4)n2)s1` returned a melting point of 188 to 191 °C.

Compound `Oc1ccc(-c2c[nH]c(-c3cccnc3)n2)cc1` gave a melting point of 315 to 318 °C.

`Cc1ccc(-c2c(C(=O)Nc3nccs3)nc(-c3cccc4ccccc34)n2Cc2ccccc2)cc1` returned a melting point of 231 to 232 °C.

In turn, `CCCOc1ccc(-c2ccc(Cl)nn2)cc1OC` registered a melting point of 132 °C.

As for `COC(=O)CCc1cc2cc(C(=O)c3ccccc3)ccc2n1S(=O)(=O)c1ccccc1`, the melting point is 37 to 51 °C.

Regarding `CCOC(=O)Nc1nc2c(c3c(CCNS(C)(=O)=O)n(C)nc13)CCCC2`, the melting point was in the range of 214 to 215 °C.

As to `FC(F)(F)c1csc(I)n1`, the melting point fell in the range of 35.5 to 36 °C.

Consider `CC(C)N1CC(C(=O)c2ccc(Cc3ccc(F)cc3)o2)=C(O)C1=O`, for which the melting point lay in the range of 155 to 157 °C.

`Cc1cnc(N(C)C)nc1-c1ccncc1` yielded a melting point of 114 to 116 °C.

On to `C/C(=C/c1ccc(C(=O)O)cc1)c1cc2c(cc1C)CCC(C)(C)CC2`, for which the melting point fell in the range of 223 to 225 °C.

`Cc1cc2c(cc1C)C(=CC#N)OC2=O` came in with a melting point of 165 to 181 °C.

`CCCc1c(OCCCCCNC(=O)NCCCCc2cccnc2)ccc(C(C)=O)c1O` had a melting point of 73 to 76 °C.

On to `CCN1CCCC(NC(=O)c2ccc(Nc3ccnc4c(C(F)(F)F)cccc34)cc2)C1` (configuration not stated), for which the melting point lay in the range of 177 to 178 °C.

In turn, `CCCc1nc2c(N)nc3ccccc3c2n1CCCCN(OC)C(=O)Nc1ccccc1` gave a melting point of 164 to 166 °C.

With `COc1ccccc1Nc1cccc(C(=O)Nc2ccccc2)c1`, the melting point lay in the range of 153 to 154 °C.

`CON(C)C(=O)Nc1ccc(CN2OCCC(C)(C)C2=O)c(Cl)c1`: the melting point lay in the range of 116 to 118 °C.

Take `COC(=O)CCc1ccc(C(c2cc(F)ccc2F)S(=O)(=O)c2ccc(Cl)cc2)nc1` (configuration not stated): the melting point was 121 to 123 °C.

The compound `Cc1[nH]c2ccccc2c1CCC(=O)N1CCN(c2ccccc2)CC1` yielded a melting point of 120 to 121 °C.

`CCCCS(=O)(=O)OCCN(CCBr)c1c(C(=O)NCCOP(=O)(O)O)cc([N+](=O)[O-])cc1[N+](=O)[O-]` had a melting point of 123 to 125 °C.

In turn, `O=C(CCc1cnn(-c2ccccc2)c1-c1ccccc1)Nc1ccc(C(=O)O)cc1` returned a melting point of 254 to 256 °C.

The compound `CCCCCCCC(O)CNCCCNCC(O)CCCCCCC` (configuration not stated) had a melting point of 107 to 109 °C.

`Cn1cnc2nc(-c3ccc(Br)cc3)nn2c1=S` yielded a melting point greater than 300 °C.

In the case of `O=C(O)COc1cccc2c(CC(O)CCC(c3ccccc3)c3ccccc3)coc12` (configuration not stated), the melting point was 155 to 157 °C.

As for `COc1ccc(CN2CCC(c3cn(Cc4cccs4)c4cc(F)ccc34)CC2)cc1C(=O)O`, the melting point was in the range of 245 to 246 °C.

`CCc1cc(Nc2ccccc2)cc(CC)c1N` registered a melting point of 42 to 44 °C.

For the compound `N#CNC(=NC1CCN(CCCc2ccccc2)CC1)N1CCc2ccccc2C1`, the melting point is 122 to 124 °C.

In turn, `CC12CCC(OC(=O)COc3ccccc3)CC1=CCC1C2CCC2(C)C(=NO)CCC12` (configuration not stated) returned a melting point of 118 to 122 °C.

In turn, `COC(=O)c1ccc(CN2CCN(CC(C)O)CC2)cc1` (configuration not stated) had a melting point of 63 to 64 °C.

As for `CC(C)(C#N)c1cc(CC#N)cc(C(C)(C)C#N)c1`, the melting point lay in the range of 72 to 73 °C.

Compound `COc1ccc(OC)c2c1C(=O)C=C(SCCCO)C2=O` registered a melting point of 125 to 126 °C.

Regarding `CCCCCCCCCN(CCCCC)CCC(=O)O`, the melting point lay within 168 to 176 °C.

As for `Nc1nc(Cl)cc(-c2ccco2)n1`, the melting point lay within 133 to 140 °C.

Turning to `O=C(NC(=O)N1CCC(Cc2ccccc2)CC1)c1ccc(O)cc1`, the melting point came out at 95 °C.

`O=C1N=NC(=O)N1c1ccccc1` displayed a melting point of 102 to 107 °C.

The compound `CCNC(=O)[C@@H]1CCCN1C(=O)[C@H](C)NC(=O)c1ccccc1` (Bz-Ala-Pro-NHEt) gave a melting point of 200 to 202 °C.

Compound `CCC(=O)Oc1ccc(N=c2scc(-c3ccc(Cl)c(S(=O)(=O)N(C)C)c3)n2C)cc1` returned a melting point of 155 to 159 °C.

For `COc1ccc2nc(-c3cc(F)c(OC)c(F)c3)cc(Br)c2c1`, the melting point lay within 170 to 172 °C.

As to `COc1ccc(Nc2ccnc(NCCO)c2)cc1`, the melting point fell in the range of 164 to 165 °C.

The compound `CC(=O)c1ccc(-c2ccc(Cl)c(Cl)c2)o1` displayed a melting point of 114 to 117 °C.

Take `CCc1nc(/C=C/c2cccc(Cl)c2Cl)no1`: the melting point lay within 107 to 109 °C.

Take `CCCNC(=O)CCCCCn1cnc2c(N)nc3ccccc3c21`: the melting point lay within 128 to 130 °C.

Compound `CC(N1C(=O)C(=O)N(c2ccc(C(C)(C)C)cc2)C1=S)C(C)(C)C` (configuration not stated) gave a melting point of 209 to 210 °C.

With `Cc1c(C=CC(=O)O)cccc1[N+](=O)[O-]`, the melting point was found to be 222 °C.

Consider `BrCc1ccc2sc3ccc4ccccc4c3c2c1`, for which the melting point is 202 to 203 °C.

Compound `OC(CSc1ncnc2[nH]ncc12)CN1CCN(C(c2ccc(Cl)cc2)c2ccc(Cl)cc2)CC1` (configuration not stated) returned a melting point of 115 to 118 °C.

On to `COC(=O)N(C)C1CN(C(=O)Nc2ccc(OC(F)(F)F)cc2)NC1c1ccc(Cl)cc1` (configuration not stated), for which the melting point was 179 to 181 °C.

`COc1ccc(OCc2ccccn2)cc1/C=C/c1cc(/C=C/c2c[nH]c3ccccc23)n[nH]1` came in with a melting point of 233 to 238 °C.

As for `Cc1cc(=O)oc2c(C)c(O)c([N+](=O)[O-])cc12`, the melting point lay within 230 to 232 °C.

Compound `N#Cc1ccc(C(F)(F)C(F)(F)c2ccccc2)cc1` displayed a melting point of 118 to 123 °C.

`CCc1nnc(-c2ccc(N(C)C)cc2)n1-c1ccc(OC)cc1` had a melting point of 148 °C.

The record behind these values is a melting point compilation (Tetko et al.; mined from patent text by program, amines drawn as free bases though some values may be those of a salt).
